Measured values taken from ChEMBL document CHEMBL1201862, “PubChem BioAssay data set” (2004).
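Where inhibition never reached the appropriate level, the endpoint shown equals the highest concentration tested. Otherwise, values were interpolated linearly from a five-concentration, 48-hour dose response in 96-well plates. GI50: concentration for 50% inhibition of growth.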 Activity calls are given as the source filed them. No stated cut-off is given here; in the data, active = GI50 up to about 1.1 µM and inactive = higher.

Tests used:
Experiment in all cases: NCI tumour cell line growth inhibition, 48 h
[1] = test system: DU-145
[2] = test system: IGROV-1
[3] = test system: OVCAR-8
[4] = test system: ACHN
[5] = test system: NCI/ADR-RES
[6] = test system: SNB-19
[7] = test system: HCT-116
[8] = test system: COLO 205
[9] = test system: NCI-H460
[10] = test system: OVCAR-5
[11] = test system: NCI-H226
[12] = test system: Hs-578T
[13] = test system: OVCAR-3
[14] = test system: SF-295
[15] = test system: CAKI-1
[16] = test system: MOLT-4
[17] = test system: T47D
[18] = test system: SF-539
[19] = test system: MDA-MB-231
[20] = test system: UO-31

Row | Structure (SMILES) | GI50 [1] | GI50 [2] | GI50 [3] | GI50 [4] | GI50 [5] | GI50 [6] | GI50 [7] | GI50 [8] | GI50 [9] | GI50 [10] | GI50 [11] | GI50 [12] | GI50 [13] | GI50 [14] | GI50 [15] | GI50 [16] | GI50 [17] | GI50 [18] | GI50 [19] | GI50 [20]
1 | Cn1c2c(c3c(=O)[nH]ncc31)CCCc1ccccc1-2 | 37.9 µM (inactive) | 24.5 µM (inactive) | 24.9 µM (inactive) | 26.8 µM (inactive) | 36.7 µM (inactive) | 42.7 µM (inactive) | 18.1 µM (inactive) | 17.9 µM (inactive) | 23.6 µM (inactive) | 45.2 µM (inactive) | 27.2 µM (inactive) | 20.9 µM (inactive) | 26.8 µM (inactive) | 32.5 µM (inactive) | 21.8 µM (inactive) | 0.0891 µM (active) | 38.9 µM (inactive) | 35.7 µM (inactive) | 27.5 µM (inactive) | 22.6 µM (inactive)
2 | CC1=NN2C(=N)/C(=C/c3ccco3)C(=O)N=C2S1 | > 100 µM (inactive) | > 100 µM (inactive) | > 100 µM (inactive) | > 100 µM (inactive) | > 100 µM (inactive) | > 100 µM (inactive) | > 100 µM (inactive) | > 100 µM (inactive) | > 100 µM (inactive) | > 100 µM (inactive) | > 100 µM (inactive) | > 100 µM (inactive) | > 100 µM (inactive) | > 100 µM (inactive) | > 100 µM (inactive) | > 100 µM (inactive) | > 100 µM (inactive) | > 100 µM (inactive) | > 100 µM (inactive) | > 100 µM (inactive)
